How the values were obtained:
hNGAL = biological target: T1, hNGAL (Homo sapiens, UniProt P80188); assay: hNGAL-induced IL6 and Col I secretion in human cardiac fibroblasts (ELISA); format: cell-based; parameters: % inhibition versus hNGAL on IL-6 secretion: concentration or dose not given beside the values; details: for IL-6 secretion: hNGAL-treated human cardiac fibroblasts, mean ± SEM
T1 construct: purchased R&D Systems
Method: (§1) Primary human cardiac fibroblasts (HCF) were obtained from Promocell (Heidelberg, Germany) and maintained in Fibroblast Media 3 following manufacturer’s instructions (Promocell). Cells were used between passages 5 and 7. Cells were stimulated with recombinant hNGAL (500 ng/mL, R&D Systems) or with TGFβ (10 ng/mL, R&D Systems) for 24 h. To assess cell proliferation the MTT test was used following provider’s instructions (Roche). For protein analysis. Primary Mouse Kidney Fibroblasts (MKF) were isolated from Wild Type (WT) mice. Briefly, 8 weeks old mice were sacrificed by cervical dislocation and kidneys were cleaned and rinsed in cold DPBS (Dulbecco's Phosphate-Buffered Saline). The renal cortex was minced and incubated in Dulbecco’s modified eagle medium/Nutrient mixture F-12 (DMEM/F12, Sigma) containing 1 mg/mL collagenase A (Roche) during 25 min at 37 °C. The digestion was inactivated by adding culture medium (DMEM/F12 + 10% FBS) then the cell suspension was passed through a 100-μm cell strainer. After centrifugation, the pellet (containing MKF) was diluted with culture medium then plated in 75 cm^2 culture flask. After 24 h MKF were washed with DPBS before replacement of fresh culture medium. Thereafter, culture medium was changed every 48 h. Once 70–80% confluent, MKF were trypsinized and plated in 12 or 6-well plates. For experimental use, MKF were starved with culture medium containing only 3% FBS. MKF were treated with mNGAL (500 ng/mL, R&D Systems) or with TGFβ (10 ng/mL, R&D Systems) for 6 h for gene expression analysis.
IL6 and collagen type I concentrations were measured in cardiac tissue and cell supernatants by ELISA according to the manufacturer's instructions (R&D Systems).

[1] = system: TGFβ-treated mouse kidney fibroblasts; assay: Specificity: gene expression in TGFβ-treated mouse kidney fibroblasts; format: cell-based; details: 10 µM, Fig. S6
Method: as §1, with “After centrifugation, the pellet (containing MKF) was diluted with culture medium then plated in 75 cm^2 culture flask. After 24 h MKF were washed with DPBS before replacement of fresh culture medium. Thereafter, culture medium was changed every 48 h. Once 70–80% confluent, MKF were trypsinized and plated in 12 or 6-well plates. For experimental use, MKF were starved with culture medium containing only 3% FBS. MKF were treated with mNGAL (500 ng/mL, R&D Systems) or with TGFβ (10 ng/mL, R&D Systems) for 6 h for gene expression analysis.” left out
Frozen tissues (kidneys, heart) were homogenized in TRIzol (Life Technologies, Illinois, USA) using FastPrep beads (MP-Bio, CA, USA). cDNAs were generated using the Superscript II reverse transcriptase kit (Invitrogen,NY, USA), and qPCR was performed as previously described. Briefly, transcript levels were analysed in a CFX396 apparatus (Biorad). […]

Chemical stability = format: physicochemical
Method: Several parameters have been evaluated to determine ADME-Tox profile of the compounds. Two specific toxicity assays have been performed to assess hepatoxicity and cardiotoxicity. Hepatotoxicity was evaluated in isolated hepatocytes from swiss mice and determined by the thiazolyl blue tetrazolium bromide colorimetric assay (sigma, St Louis, MO, USA). Cardiotoxicity was evaluated using the commercially available Predictor hERG fluorescence polarization kit (Thermo Fisher Scientific, Illinois, USA). Several absorption, distribution, metabolism, and excretion (ADME) assays have been carried out. The following experiments were undertaken: stability in human microsomes, binding to human plasma protein, and CYP3A4 inhibition assay (Vivid CYP3A4 assay, Thermo Fisher Scientific, Illinois, USA). Physico-chemical properties were also assessed such as aqueous solubility and chemical stability.

CKD mouse model = assay: Chronic kidney disease (CKD) mouse model, 5/6 (subtotal) nephrectomy; format: in vivo; parameters: Plasma creatinine level: unit not given here; details: CKD mice
Method: Animals were housed in a climate-controlled facility with a 12-h/12-h light/dark cycle and provided free access to food and water. Experiments were approved by the Darwin ethics committee of Sorbonne University, and conducted according to the INSERM animal care and use committee guidelines. The NGAL inhibitor GP1 was incorporated in regular chow (A04, Safe, Augy, France) at the dose of 625 mg GP1/kg of chow to achieve a low dose of 100 mg/kg/day of GP1 administered to the mice (based on a daily consumption of 4 g of chow).
LV hemodynamic was assessed as described previously. Briefly, mice were anesthetized (chloral 320 mg/kg, IP) and the carotid artery cannulated with a pressure–volume catheter (SPR839, Millar-Instruments, USA) and the catheter was advanced into the LV. Pressure–volume loops were obtained at baseline and during loading by gently occluding the abdominal aorta. LV end-systolic and end-diastolic pressures, dP/dtmax/min, LV relaxation constant tau and were measured/calculated with IOX software (EMKA, France). Systolic BP was measured by tail-cuff plethysmography in trained conscious mice at weeks 8–10 using a BP2000 Visitech model. BP was measured every day in the same room at the same hour for 5 consecutive days. The BP measurements (expressed as mmHg) presented are the averages of the last 3 days.
Chronic kidney disease (CKD) was induced by subtotal nephrectomy in 8-weeks-old male mice (25–26 g). All surgeries were performed under ketamine/xylazine anaesthesia. Briefly, the left kidney was exposed, and the upper and lower poles were tied with a poly-glycolic acid suture line. The peritoneum and skin were then sutured, and the animals were returned to their individual cages. After 1 week of recovery, the second kidney was removed. Removal of the second kidney represents T0. Sham mice were subjected to the same surgical procedures but neither renal poles nor the right kidney were removed. Mice were monitored for any sign of distress, and those observed to be experiencing severe, unrelievable pain were euthanized. Renal failure was assessed by the measure of plasma creatinine and urea with an automatic analyser (Konelab 20i; Thermo Fisher Scientific, Vernon Hills, IL) at weeks 4 and 8 post-Nx.
In the MI model, heart was harvested after hemodynamics and the atria and the ventricles were separated and weighed individually. A section of the left ventricle was immersed in Bouin fixative solution. In the CKD model, kidneys were harvested and a section was immersed in paraformaldehyde fixative solution. After fixation, the sections were dehydrated and embedded in paraffin. From these sections, 5-μm thick histologic slices were obtained and were stained with Sirius Red. For the measurement of cardiac or renal collagen density, slides were examined and photographed under a light microscope (Zeiss) at 40× magnification. Collagen content was calculated as percentage of collagen area to total area of the image. Perivascular collagen was excluded from the analysis. For tubular lesions scoring, kidney slides were stained with Periodic Acid-Schiff kit (Sigma) and the score of tubules with injury (epithelial cell necrosis and detachment, and tubular dilation) was analyzed blinded to the experimental groups.
Frozen tissues (kidneys, heart) were homogenized in TRIzol (Life Technologies, Illinois, USA) using FastPrep beads (MP-Bio, CA, USA). cDNAs were generated using the Superscript II reverse transcriptase kit (Invitrogen,NY, USA), and qPCR was performed as previously described. Briefly, transcript levels were analysed in a CFX396 apparatus (Biorad). The reactions were performed in duplicate for each sample using the IQ SYBR Green supermix Kit (Biorad,CA, USA). To normalize gene expression, the geometric mean of multiple internal reference genes were used (RS16, Ubc, Hprt and Gapdh for mice experiments). Values in control conditions were set as 1 for each gene. The sequences of the specific primers are detailed in Table S8.

[2] = 10 µM, human cardiac fibroblasts, Fig. 1C

T1 sequence (P80188 21-198): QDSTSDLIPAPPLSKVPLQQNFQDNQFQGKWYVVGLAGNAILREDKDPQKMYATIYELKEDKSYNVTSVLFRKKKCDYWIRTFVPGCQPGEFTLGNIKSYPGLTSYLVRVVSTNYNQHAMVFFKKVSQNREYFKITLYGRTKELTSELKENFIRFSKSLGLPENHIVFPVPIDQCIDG

CC(=O)c1cccc(S(=O)(=O)NCc2ccccc2-n2cccn2)c1 [GPZ614741]
Increase in IL6 secretion induced by NGAL (hNGAL; 1 µM, human cardiac fibroblasts, Fig. S3): did not prevent | NGAL-induced Col I secretion, in words (hNGAL; [2]): fully inhibited | NGAL-induced IL6 secretion, in words (hNGAL; [2]): fully inhibited | IL-6 secretion (hNGAL; Table S1, first generation compounds, Control 1.0 ± 0.1, NGAL 2.21 ± 0.2): 0.86 ± 0.2 | % inhibition versus hNGAL on IL-6 secretion (hNGAL; Table S1, first generation compounds, human cardiac fibroblasts): 61.1% | IL-6 secretion (hNGAL; Table S4, second generation compounds and parents, Control 1.00, NGAL 1.45): 0.59 ± 0.02 | % inhibition versus hNGAL on IL-6 secretion (hNGAL; Table S4, second generation compounds and parents, human cardiac fibroblasts): 59.5% | Inhibitor effect on hNGAL-induced IL6 secretion, in words (hNGAL; human cardiac fibroblasts, text on Tables S1 and S4): important inhibitor effect | Effect on TGFβ-induced gene expression of Col I, Fibronectin and IL6 [1]: no inhibitory effect | Stability to acidic pH, in words (Chemical stability): fully stable | Chemical Stability % (Chemical stability; Table S5): 103% | KW/TL (kidney weight/tibia length) (CKD mouse model; GP1 100 mg/kg/day, two months, CKD untreated 11.5 ± 0.42): 11.3 ± 0.23 mg/mm | Plasma urea level (CKD mouse model; GP1 100 mg/kg/day, two months, CKD untreated 15.2 ± 0.36): 16.74 ± 1.86 mM | Plasma creatinine level (CKD mouse model; GP1 100 mg/kg/day, two months, CKD untreated 21.5 ± 1.45): 20.4 ± 1.54 | SBP (systolic blood pressure) (CKD mouse model; GP1 100 mg/kg/day, two months, CKD untreated 139.3 ± 2.22): 122.1 ± 2.58 mmHg | Increased expression of profibrotic markers (Col I, fibronectin, αSMA) (CKD mouse model; kidney mRNA, Fig. 4C): blunted | Functional parameters: plasma levels of urea or creatinine, in words (CKD mouse model; one and two months after CKD induction): no impact | Increase in blood pressure, in words (CKD mouse model; two months of GP1): prevented the increase | Renal tubulointerstitial fibrosis (Sirius red) (CKD mouse model; two months of GP1, Fig. 4A): strong antifibrotic effect | Tubular injury (tubular lesion scoring, PAS) (CKD mouse model; × 3.1 in CKD vs. Sham, Fig. 4B): prevented
